# Assay results reported in ChEMBL document CHEMBL5150071, “BAY-7081: A Potent, Selective, and Orally Bioavailable Cyanopyridone-Based PDE9A Inhibitor” (J Med Chem, 2022).
# pEC50, pIC50: −log10 of the molar value. Calls of active or inactive are those of the source. No cut-off for these calls is given here.
# Assays:
# [1] = target: High affinity cGMP-specific 3',5'-cyclic phosphodiesterase 9A (Homo sapiens, UniProt O76083); assay: Inhibition of full length human PDE9A expressed in Sf9 insect cells using [3H]-cGMP as substrate incubated for 60 mins by microbeta scintillation counter analysis
# High affinity cGMP-specific 3',5'-cyclic phosphodiesterase 9A (Homo sapiens, UniProt O76083), sequence (O76083 whole entry): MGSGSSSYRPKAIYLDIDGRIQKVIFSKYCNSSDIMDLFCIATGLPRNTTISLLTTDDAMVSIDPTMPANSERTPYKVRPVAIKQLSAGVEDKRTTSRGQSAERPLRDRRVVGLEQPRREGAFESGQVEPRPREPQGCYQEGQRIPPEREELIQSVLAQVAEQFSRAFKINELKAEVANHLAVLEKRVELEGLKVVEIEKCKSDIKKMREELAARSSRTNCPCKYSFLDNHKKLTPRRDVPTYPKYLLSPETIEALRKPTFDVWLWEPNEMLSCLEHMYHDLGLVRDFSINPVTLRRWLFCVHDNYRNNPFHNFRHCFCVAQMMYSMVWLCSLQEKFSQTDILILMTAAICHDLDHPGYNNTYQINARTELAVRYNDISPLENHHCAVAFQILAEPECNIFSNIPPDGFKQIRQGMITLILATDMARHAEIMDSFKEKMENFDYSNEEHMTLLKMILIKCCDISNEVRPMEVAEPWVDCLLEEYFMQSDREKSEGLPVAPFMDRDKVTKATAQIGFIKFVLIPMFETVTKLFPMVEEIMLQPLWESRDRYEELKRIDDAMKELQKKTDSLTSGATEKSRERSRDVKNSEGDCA
# [2] = Selectivity index, ratio of IC50 for bovine brain PDE1 to IC50 for full length human PDE9A
# [3] = Drug metabolism in rat hepatocytes assessed as glucuronidation at 10 uM incubated for 30 mins by LC-MS/MS analysis; assay type: ADME, cell-based, Hepatocyte; settings: 0.5 h
# [4] = Blood clearance in Wistar rat at 1 mg/kg, po or 0.3 mg/kg, iv measured over 24 hrs by LC-MS/MS analysis; assay type: ADME, organism-based; settings: in vivo
# [5] = Volume of distribution at steady state in Wistar rat at 1 mg/kg, po or 0.3 mg/kg, iv measured over 24 hrs by LC-MS/MS analysis; assay type: ADME, organism-based; settings: in vivo
# [6] = MRT in Wistar rat at 0.3 mg/kg, iv measured over 24 hrs by LC-MS/MS analysis; assay type: ADME, organism-based; settings: in vivo
# [7] = Oral bioavailability in Wistar rat at 1 mg/kg measured over 24 hrs by LC-MS/MS analysis; assay type: ADME, organism-based; settings: in vivo, po, 1 mg/kg, 24 h
# [8] = Blood clearance in dog at 1 mg/kg, po or 0.3 mg/kg, iv measured over 24 hrs by LC-MS/MS analysis; assay type: ADME, organism-based, Canis lupus familiaris; settings: in vivo
# [9] = Volume of distribution at steady state in dog at 1 mg/kg, po or 0.3 mg/kg, iv measured over 24 hrs by LC-MS/MS analysis; assay type: ADME, organism-based, Canis lupus familiaris; settings: in vivo
# [10] = MRT in dog at 0.3 mg/kg, iv measured over 24 hrs by LC-MS/MS analysis; assay type: ADME, organism-based, Canis lupus familiaris; settings: in vivo
# [11] = Oral bioavailability in dog at 1 mg/kg measured over 24 hrs by LC-MS/MS analysis; assay type: ADME, organism-based, Canis lupus familiaris; settings: in vivo
# [12] = Solubility of compound in PBS at pH 7 incubated for 24 hrs by UV based HPLC analysis; assay type: physicochemical; settings: buffer, pH 7, 24 h
# [13] = Protein binding in rat plasma assessed as fraction unbound incubated for 6 hrs by LC-MS/MS analysis; assay type: ADME, cell-free
# [14] = Protein binding in human plasma assessed as fraction unbound incubated for 6 hrs by LC-MS/MS analysis; assay type: ADME, cell-free
# [15] = target: T1, High affinity cGMP-specific 3',5'-cyclic phosphodiesterase 9A (Mus musculus, UniProt O70628); assay: Inhibition of mouse PDE9A expressed in recombinant CHO cells coexpressing soluble guanylate cyclase incubated for 6 mins by [3H]-cGMP scintillation proximity assay; assay type: cell-based
# T1 sequence (O70628 whole entry): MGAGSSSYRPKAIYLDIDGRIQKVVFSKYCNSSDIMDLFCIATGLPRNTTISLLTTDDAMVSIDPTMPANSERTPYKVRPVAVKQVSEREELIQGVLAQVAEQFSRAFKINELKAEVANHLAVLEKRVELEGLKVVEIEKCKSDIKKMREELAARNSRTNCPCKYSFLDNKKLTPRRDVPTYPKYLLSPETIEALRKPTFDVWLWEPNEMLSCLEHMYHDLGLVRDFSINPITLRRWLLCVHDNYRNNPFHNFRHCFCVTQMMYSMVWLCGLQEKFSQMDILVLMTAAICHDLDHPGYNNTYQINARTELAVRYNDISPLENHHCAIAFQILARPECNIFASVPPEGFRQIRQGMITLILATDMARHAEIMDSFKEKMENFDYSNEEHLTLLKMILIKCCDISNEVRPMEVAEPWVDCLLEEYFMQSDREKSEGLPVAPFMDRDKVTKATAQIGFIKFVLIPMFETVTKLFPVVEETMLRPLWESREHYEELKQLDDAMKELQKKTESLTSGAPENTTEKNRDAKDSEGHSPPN
# [16] = Protein binding in mouse plasma assessed as fraction unbound incubated for 6 hrs by LC-MS/MS analysis; assay type: ADME, cell-free
# [17] = Protein binding in dog plasma assessed as fraction unbound incubated for 6 hrs by LC-MS/MS analysis; assay type: ADME, cell-free, Canis lupus familiaris
# [18] = Protein binding in monkey plasma assessed as fraction unbound incubated for 6 hrs by LC-MS/MS analysis; assay type: ADME, cell-free, Macaca mulatta; settings: rhesus monkey
# Cytochrome P450 2C9 = Cytochrome P450 2C9 (Homo sapiens, UniProt P11712); assay: Inhibition of CYP2C9 in human liver microsomes using diclofenac as substrate by LC-MS/MS analysis; assay type: ADME, Microsome
# Cytochrome P450 2C9, sequence (P11712 whole entry): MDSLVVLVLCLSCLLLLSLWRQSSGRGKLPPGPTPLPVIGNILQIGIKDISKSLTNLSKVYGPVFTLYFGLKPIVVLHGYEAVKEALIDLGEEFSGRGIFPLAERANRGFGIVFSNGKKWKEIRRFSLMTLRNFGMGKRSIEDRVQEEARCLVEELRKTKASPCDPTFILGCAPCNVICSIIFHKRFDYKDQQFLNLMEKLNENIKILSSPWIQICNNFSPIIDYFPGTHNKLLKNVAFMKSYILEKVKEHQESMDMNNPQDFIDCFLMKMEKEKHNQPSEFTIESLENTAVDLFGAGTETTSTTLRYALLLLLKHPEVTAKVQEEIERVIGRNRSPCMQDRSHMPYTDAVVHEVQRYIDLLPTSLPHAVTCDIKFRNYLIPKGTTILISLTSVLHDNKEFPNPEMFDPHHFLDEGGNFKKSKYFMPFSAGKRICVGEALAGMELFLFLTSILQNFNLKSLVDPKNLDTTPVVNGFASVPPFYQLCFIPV
# [19] = Induction of CYP3A4 mRNA expression in human hepatocytes at 9.2 uM incubated for 48 hrs with media replacement for […] by qPCR analysis; assay type: ADME, cell-based, Hepatocyte
# [20] = Stability in human hepatocytes assessed as drug degradation incubated for 4 hrs; assay type: ADME, cell-based, Hepatocyte
# [21] = Toxicity in rat assessed as increase in blood pressure at 5 to 40 mg/kg, po administered once daily via gavage and measured every 5 mins by telemetry system based analysis; assay type: organism-based; settings: in vivo, dose 5-40 mg/kg
# [22] = Toxicity in rat assessed as increase in heart rate at 5 to 40 mg/kg, po administered once daily via gavage and measured every 5 mins by telemetry system based analysis; assay type: organism-based; settings: in vivo, dose 5-40 mg/kg
# Homo sapiens [23] = species on record: Homo sapiens; assay: Selectivity index, ratio of IC50 for full length human PDE2A to IC50 for full length human PDE9A
# Homo sapiens [24] = species on record: Homo sapiens; assay: Selectivity index, ratio of IC50 for full length human PDE3B to IC50 for full length human PDE9A
# Homo sapiens [25] = species on record: Homo sapiens; assay: Selectivity index, ratio of IC50 for human platelet PDE5A to IC50 for full length human PDE9A
# Homo sapiens [26] = species on record: Homo sapiens; assay: Selectivity index, ratio of IC50 for full length human PDE7B to IC50 for full length human PDE9A
# Homo sapiens [27] = species on record: Homo sapiens; assay: Selectivity index, ratio of IC50 for full length human PDE8A to IC50 for full length human PDE9A
# Homo sapiens [28] = species on record: Homo sapiens; assay: Selectivity index, ratio of IC50 for full length human PDE10A to IC50 for full length human PDE9A
# Homo sapiens [29] = species on record: Homo sapiens; assay: Selectivity index, ratio of IC50 for full length human PDE11A to IC50 for full length human PDE9A
# Homo sapiens [30] = species on record: Homo sapiens; assay: Selectivity index, ratio of IC50 for full length human PDE4B to IC50 for full length human PDE9A
# [31] = Selectivity index, ratio of IC50 for bovine PDE6 to IC50 for full length human PDE9A
# [32] = target: T2, High affinity cGMP-specific 3',5'-cyclic phosphodiesterase 9A (Mus musculus) (UniProt O70628); assay: Inhibition of mouse PDE9A using [3H]-cGMP as substrate at 34 nM incubated for 60 mins by microbeta scintillation counter analysis relative to control
# T2 sequence (whole entry): T1 sequence (O70628 whole entry)
# [33] = target: T3, High affinity cGMP-specific 3',5'-cyclic phosphodiesterase 9A (Rattus norvegicus) (UniProt Q8QZV1); assay: Inhibition of rat PDE9A using [3H]-cGMP as substrate at 42 nM incubated for 60 mins by microbeta scintillation counter analysis relative to control
# T3 sequence (whole entry): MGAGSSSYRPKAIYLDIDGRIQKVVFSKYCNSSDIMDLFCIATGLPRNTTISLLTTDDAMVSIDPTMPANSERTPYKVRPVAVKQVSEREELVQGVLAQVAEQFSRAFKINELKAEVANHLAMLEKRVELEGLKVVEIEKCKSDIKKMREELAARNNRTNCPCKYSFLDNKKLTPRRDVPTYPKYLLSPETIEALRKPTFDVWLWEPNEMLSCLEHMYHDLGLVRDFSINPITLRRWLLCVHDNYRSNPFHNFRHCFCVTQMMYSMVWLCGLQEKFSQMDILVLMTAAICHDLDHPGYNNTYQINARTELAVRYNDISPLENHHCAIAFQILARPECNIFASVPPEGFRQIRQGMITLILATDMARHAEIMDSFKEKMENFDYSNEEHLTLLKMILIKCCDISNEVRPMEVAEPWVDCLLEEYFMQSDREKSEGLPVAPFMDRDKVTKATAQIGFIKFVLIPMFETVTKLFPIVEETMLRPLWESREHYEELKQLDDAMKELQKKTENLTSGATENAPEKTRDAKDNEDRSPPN
# Rattus norvegicus = assay: In vivo inhibition of PDE9A in Sprague-Dawley rat assessed as increase in cGMP level in urine at 40 mg/kg, po measured after 85 mins by ELISA; assay type: functional, organism-based
compound,measurement,setting,value
CCCC1CNCc2c1[nH]c(=O)c(C#N)c2N1CCC2(CC2)C(F)(F)C1 (racemic),pIC50,[1],7.00
same,Ratio IC50,[2],9
CCCC1CCCc2c(-c3ccc(C)cc3)nc(=O)[nH]c21 (racemic),pIC50,[1],4.87
CCc1ccnc2c(N3CCC(C)(C)CC3)c(C#N)c(=O)[nH]c12,pIC50,[1],6.21
CCCC1CNCc2c1[nH]c(=O)c(C#N)c2N1CCC2(CCOC2)CC1 (racemic),pIC50,[1],7.89
same,Ratio IC50,[2],12
COCC1CCCc2c1[nH]c(=O)c(C#N)c2-c1ccc(C)cc1 (racemic),Drug metabolism,[3],Metabolite_Detected
CCCC1CNCc2c1[nH]c(=O)c(C#N)c2N1CCC2(CC1)CC2.Cl (stereo in doubt; form 2),pIC50,[1],7.82
same,CL,[4],40 mL/min/kg
same,Vdss,[5],4.5 L/kg
same,MRT,[6],1.9 h
same,F,[7],61%
same,CL,[8],15 mL/min/kg
same,Vdss,[9],3 L/kg
same,MRT,[10],4 h
same,F,[11],80%
same,solubility,[12],> 500 µg/mL
same,Fu,[13],20%
same,Fu,[14],34%
same,pEC50,[15],6.00
same,Fu,[16],41%
same,Fu,[17],43%
same,Fu,[18],42%
same,pIC50,Cytochrome P450 2C9,4.80
same,Activity,[19],Active
same,Stability,[20],Stable
same,Activity,[21],Non-Toxic
same,Activity,[22],Non-Toxic
CCCCC1CCCc2c1[nH]c(=O)c(C#N)c2-c1ccc(C)cc1 (racemic),pIC50,[1],7.46
CCCC1CNCc2c1[nH]c(=O)c(C#N)c2N1CCC2(CC1)CC2 (stereo in doubt; form 2),Ratio IC50,[2],49
same,Ratio IC50,Homo sapiens [23],> 650
same,Ratio IC50,Homo sapiens [24],> 650
same,Ratio IC50,Homo sapiens [25],143
same,Ratio IC50,Homo sapiens [26],> 650
same,Ratio IC50,Homo sapiens [27],97
same,Ratio IC50,Homo sapiens [28],> 650
same,Ratio IC50,Homo sapiens [29],430
same,Ratio IC50,Homo sapiens [30],238
same,Ratio IC50,[31],101
same,inhibition,[32],50%
same,inhibition,[33],50%
same,inhibition,Rattus norvegicus,Active
CCCC1CCCc2c1[nH]c(=O)c(C#N)c2-c1ccc(C)cc1 (stereo unspecified),Ratio IC50,Homo sapiens [23],69
same,Ratio IC50,Homo sapiens [24],69
same,Ratio IC50,Homo sapiens [25],69
same,Ratio IC50,Homo sapiens [26],69
same,Ratio IC50,Homo sapiens [27],69
same,Ratio IC50,Homo sapiens [28],69
same,Ratio IC50,Homo sapiens [29],69
same,Ratio IC50,Homo sapiens [30],69
CC1(C)CCN(c2c(C#N)c(=O)[nH]c3cccnc23)CC1,pIC50,[1],6.48
